For 4 compounds, Ki and half-life results are on record in ChEMBL document CHEMBL3421604, “Treating pain with somatostatin receptor subtype 4 agonists” (ACS Med Chem Lett, 2015).

Series [1] deals with Somatostatin receptor type 5 (Homo sapiens, UniProt P35346). The series can be described thus: Displacement of [3-125l-Tyr]-somatostatin-(1 -14) from human recombinant somatostatin 5 receptor expressed in CHO cell membranes incubated for 180 mins.
Series [2] addresses Somatostatin receptor type 2 (Homo sapiens, UniProt P30874). The series can be described thus: Displacement of [3-125l-Tyr]-somatostatin-(1 -14) from human recombinant somatostatin 2 receptor expressed in CHO cell membranes incubated for 180 mins.
The nature of series [3]: Metabolic stability in pooled human liver microsomes assessed as half life at 0.1 uM at 37 degC in presence of NADPH by LC-MS/MS method. The format is ADME. Background: Liver microsomes are a subcellular fraction often used to study metabolism.
Series [4] has as its target Somatostatin receptor type 3 (Homo sapiens, UniProt P32745). The series can be described thus: Displacement of [3-125l-Tyr]-somatostatin-(1 -14) from human recombinant somatostatin 3 receptor expressed in CHO cell membranes incubated for 180 mins.
Series [5] deals with Somatostatin receptor type 1 (Homo sapiens, UniProt P30872). The series can be described thus: Displacement of [3-125l-Tyr]-somatostatin-(1 -14) from human recombinant somatostatin 1 receptor expressed in CHO cell membranes incubated for 180 mins.
Somatostatin receptor type 1, sequence (P30872 whole entry): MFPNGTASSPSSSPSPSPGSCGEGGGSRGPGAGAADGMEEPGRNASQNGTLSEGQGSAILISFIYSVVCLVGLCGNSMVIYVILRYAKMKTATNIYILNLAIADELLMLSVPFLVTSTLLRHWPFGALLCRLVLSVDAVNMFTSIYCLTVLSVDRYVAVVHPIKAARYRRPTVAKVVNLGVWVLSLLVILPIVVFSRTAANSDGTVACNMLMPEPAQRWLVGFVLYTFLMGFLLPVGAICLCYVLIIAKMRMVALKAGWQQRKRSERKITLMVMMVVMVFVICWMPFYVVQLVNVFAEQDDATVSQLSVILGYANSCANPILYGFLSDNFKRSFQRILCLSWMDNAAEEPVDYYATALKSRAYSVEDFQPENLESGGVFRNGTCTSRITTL

Some results are limits rather than exact numbers.

Somatostatin receptor type 2, sequence (P30874 whole entry): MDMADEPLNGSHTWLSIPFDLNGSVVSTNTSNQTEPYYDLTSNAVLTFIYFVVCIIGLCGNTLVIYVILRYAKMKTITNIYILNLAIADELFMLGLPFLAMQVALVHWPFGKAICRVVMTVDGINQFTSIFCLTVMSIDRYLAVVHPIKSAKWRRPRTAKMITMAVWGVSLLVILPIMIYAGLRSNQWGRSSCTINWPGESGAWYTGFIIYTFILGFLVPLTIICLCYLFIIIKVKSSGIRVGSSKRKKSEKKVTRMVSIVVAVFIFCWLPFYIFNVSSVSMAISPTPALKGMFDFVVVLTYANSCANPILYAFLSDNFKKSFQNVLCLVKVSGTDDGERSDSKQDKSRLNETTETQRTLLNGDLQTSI
Somatostatin receptor type 3, sequence (P32745 whole entry): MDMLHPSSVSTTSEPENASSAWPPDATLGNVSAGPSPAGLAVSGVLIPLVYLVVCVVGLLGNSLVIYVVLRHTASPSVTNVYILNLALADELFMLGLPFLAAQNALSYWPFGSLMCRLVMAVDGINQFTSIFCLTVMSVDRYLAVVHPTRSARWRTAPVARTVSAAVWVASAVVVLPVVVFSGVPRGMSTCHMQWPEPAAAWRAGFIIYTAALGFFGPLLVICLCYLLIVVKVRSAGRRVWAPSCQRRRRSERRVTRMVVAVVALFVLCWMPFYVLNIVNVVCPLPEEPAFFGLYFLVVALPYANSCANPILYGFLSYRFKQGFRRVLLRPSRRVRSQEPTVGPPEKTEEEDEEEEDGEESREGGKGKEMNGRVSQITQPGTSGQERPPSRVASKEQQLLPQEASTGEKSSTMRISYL
Somatostatin receptor type 5, sequence (P35346 whole entry): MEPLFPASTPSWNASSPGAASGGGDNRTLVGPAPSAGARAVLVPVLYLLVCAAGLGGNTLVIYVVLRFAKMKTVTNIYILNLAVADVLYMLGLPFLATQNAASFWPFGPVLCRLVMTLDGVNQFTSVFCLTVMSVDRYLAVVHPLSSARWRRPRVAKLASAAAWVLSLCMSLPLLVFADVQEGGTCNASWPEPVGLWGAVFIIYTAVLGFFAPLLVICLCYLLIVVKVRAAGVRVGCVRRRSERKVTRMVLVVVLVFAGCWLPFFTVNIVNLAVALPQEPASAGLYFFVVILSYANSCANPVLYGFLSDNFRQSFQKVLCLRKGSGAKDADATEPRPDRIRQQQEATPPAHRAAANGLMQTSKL

With `Cc1cc2ccccc2c(C(C)(C)NC(=O)[C@H]2[C@@H]3CNC[C@@H]32)n1`, the Ki in series [1] is greater than 9.85 µM; in series [2], greater than 9.59 µM. The half-life at 0.1 µM in series [3] is greater than 2.17 h.
In the case of `Cn1nc(C(C)(C)NC(=O)[C@H]2[C@@H]3CNC[C@@H]32)c2ccccc21`, the inhibitory constant (Ki) in series [1] was greater than 9.86 µM; in series [2], greater than 9.6 µM; in series [4], greater than 8.62 µM. The half-life at 0.1 µM in series [3] was greater than 2.17 h.
In the case of `CC(C)(NC(=O)[C@H]1[C@@H]2CNC[C@@H]21)c1noc2c(F)cccc12`, the Ki in series [1] is greater than 9.85 µM; in series [2], greater than 9.6 µM; in series [5], greater than 9.09 µM; in series [4], greater than 8.6 µM. The half-life at 0.1 µM in series [3] is greater than 2.17 h.
On to `Cc1nc(C(C)(C)NC(=O)[C@H]2[C@@H]3CNC[C@@H]32)c2ccccc2n1`, for which the results for the Ki in series [1], in series [2] and in series [4] were greater than 9.86 µM, greater than 9.63 µM and greater than 8.71 µM, respectively. The half-life at 0.1 µM in series [3] is greater than 2.17 h.

Broadly, the Ki is the dissociation constant of the complex between target and ligand, obtained from inhibition or displacement. For orientation: half-life means the time in which the quantity being followed falls by half.
